Experimental data reported in paper PMC12250754, “Phytochemical Screening and Biological Activities of Lippia multiflora Moldenke” (Molecules, 2025).
≈ marks a conversion by molar mass, not a printed value. Where two headings read alike, the source gives them in different places. Marks after values point to notes of the source that are not given here. One block for each compound: values may come before it.

Key:
[1] = cited from earlier work
[2] = DPPH free radical scavenging assay; conditions: mean ± SD, n = 3
Procedure: The DPPH free radical scavenging ability was evaluated for the crude extracts using the DPPH (2,2-diphenyl-1-picrylhydrazyl) assay using a modified spectrophotometric method of Motamed and Naghibi (2010) [81]. The crude extracts (100 µL) were added to a 96-well plate containing distilled water (100 µL). After serial dilution, a 0.3 M DPPH/methanol (200 µL) solution was added to the mixture. The mixture was left at room temperature for 30 min, and the absorbance was measured using a SoftMax^R Pro 6 (version 6.3) microplate reader at 517 nm. All the crude extracts were tested in triplicate.
The percentage of radical scavenging was calculated by the following formula:% Free RSA = [(ADPPH − Asample)/(ADPPH)] × 100(2) where ADPPH is the absorbance of the DPPH solution and Asample is the absorbance of the samples and DPPH. The ability of the crude extracts to inhibit 50% of the free radical (IC50) was extrapolated from a graph of % RSA against concentration.

[3] = Reducing power assay; conditions: mean ± SD, n = 3
Procedure: The reducing capacity of the crude extracts was estimated as described by Pereira et al. (2013). Fifty microliters of the crude extracts were mixed with fifty microliters of sodium phosphate buffer (0.2 M, pH 6.6). After serial dilution, a potassium hexacyanoferrate (1% aqueous, 50 μL) solution was added. A trichloroacetic acid (10%, 50 μL) solution was added after 20 min of incubation at 50 °C. Eighty microliters of each mixture was moved to another 96-well plate containing eighty microliters of distilled water. […] All the crude extracts were tested in triplicate.

[4] = cited from earlier work; remark: listed apart in the source
[5] = design: method as in earlier work; conditions: ref 65 (Gülçin et al. 2012); cited from earlier work
[6] = design: method as in earlier work; conditions: ref 65 (Gülçin et al. 2012); cited from earlier work; remark: listed apart in the source
[7] = system: Vero cells; assay: MTT cytotoxicity assay; type: cell-based, African green monkey; conditions: Chlorocebus sabaeus, 48 h, Vero monkey kidney cells, two days incubation, mean ± SD, n = 3
Procedure: African green monkey (Vero) kidney cells (ATCC CCL-81, Cellonex, Johannesburg, South Africa) were cultured in Minimal Essential Medium (MEM), which consisted of Earle’s Balanced Salt Solution (EBSS) and L-Glutamine (2.0 mM) (Cytiva Hyclone, Marlborough, MA, USA) and was supplemented with 10% fetal bovine serum (FBS) and 1% penicillin/streptomycin (P/S, Biowest, Nuaille, France). These cells were incubated for 48 h at 37 °C in a 95% air and 5% CO2 humidified incubator (Nϋve, Ankara, Turkey). The cells were trypsinized with 0.25% trypsin/EDTA (Cytiva Hyclone, Marlborough, MA, USA) and split at a ratio of 1:5 for further passaging at 70 to 80% confluency. […]
The 3-(4,5-dimethylthiazol-2-yl)-2,5-diphenyltetrazolium bromide (MTT) cytotoxicity assay was determined as described by Mariri et al. (2024). The cytotoxic effects of the crude extracts of Lippia multiflora were evaluated against Vero cells. […] The mixture was kept in the dark for 15 min, and the absorbance was measured spectrophotometrically at 570 nm on a SpectraMax iD3 multi-mode microplate reader (Winooski, VT, USA). The cell viability was calculated as the percentage (%) of negative control (0.5% dimethyl sulfoxide; see Equation (3)).
The extracts were calculated using the following equation:(3) Cell viability%=Abssample−AbsBlank/Absnegative control−AbsBlank×100 where Abs is the absorbance.

Compound: CCCCC[C@H](O)CC(=O)CCc1ccc(O)c(OC)c1 [Compound 11, 6-Gingerol]
DPPH radical scavenging EC50 ([1]; isolated from rhizome of Zingiber officinale, ref 67 (Wang et al. 2003)): 23.07 mg/L

DPPH IC50 [2]: 44.308 ± 9.813 ^b µg/mL
Compound: O=C1O[C@H]([C@@H](O)CO)C(O)=C1O [Ascorbic acid, ascorbic acid]
Reducing Power IC0.5 [3]: 0.355 ± 0.393 ^a µg/mL

DPPH IC50 [2]: 37.361 ± 21.356 ^b µg/mL
Compound: O=c1c(O)c(-c2ccc(O)c(O)c2)oc2cc(O)cc(O)c12 [Quercetin, quercetin]
Reducing Power IC0.5 [3]: 3.760 ± 2.979 ^a µg/mL

Compound: C[C@@H]1O[C@@H](Oc2c(-c3ccc(O)c(O)c3)oc3cc(O)cc(O)c3c2=O)[C@H](O)[C@H](O)[C@H]1O [Compound 10, Quercitrin]
DPPH radical scavenging IC50 ([1]; isolated from ethyl acetate stem of Lippia graveolens, ref 70 (González Güereca et al. 2007)): 11.24 ± 1.10 µg/mL

DPPH IC50 [2]: 37.340 ± 17.529 ^ab µg/mL
Compound: O=C(O)c1cc(O)c(O)c(O)c1 [Gallic acid, gallic acid]
Reducing Power IC0.5 [3]: 8.210 ± 11.257 ^a µg/mL

Compound: COC(=O)C1=COC(C)C2CN3CCC4(C(=O)Nc5c4ccc(OC)c5OC)C3CC12 (stereo not drawn) [Compound 15, Isomajdine]
ABTS scavenging EC50 ([4]; ref 65 (Gülçin et al. 2012)): 34.11 mg/L
DMPD scavenging EC50 [5]: 32.09 mg/L
Ferrous ion (Fe^2+) chelating activity EC50 [6]: 10.05 mg/L

Compound: Oc1cc(O)c2c(c1)O[C@H](c1cc(O)c(O)c(O)c1)[C@H](O)C2 [Compound 14, (−)-Epigallocatechin]
DPPH radical scavenging IC50 ([1]; from Japanese knotweed rhizome bark extract, ref 64 (Jug et al. 2021)): 1.5 µg/mL^−1

Compound: COc1ccc(-c2coc3cc(O[C@@H]4O[C@H](CO)[C@@H](O)[C@H](O)[C@H]4O)ccc3c2=O)cc1 [Compound 8, Formononetin-7-O-glucoside (Ononin)]
DPPH radical IC50 ([1]; ref 62 (Zgórka et al. 2022)): 30.18 ± 0.37 mg/L
ABTS radical IC50 ([4]; ref 62 (Zgórka et al. 2022)): 30.30 ± 0.18 mg/L

Compound: COc1cccc2c1C(=O)c1c(O)c3c(c(O)c1C2=O)C[C@@](O)(C(=O)CO)C[C@@H]3O[C@H]1C[C@H](N)[C@H](O)[C@H](C)O1 [Doxorubicin]
IC50 [7]: 4.97 ± 0.83 mg/L (≈ 9.14 µM)
